Reference: US7803930B2, “Antisense modulation of apolipoprotein B-expression” (Isis Pharmaceuticals, Inc., priority 2002, dated 2010)
In the oligonucleotide strings, read from the 5' end, every base follows the letter of its sugar. An asterisk marks phosphorothioate; unmarked linkages are phosphodiester. Other units and linkages are bracketed, terminal groups are in braces. A string of capitals states the bases alone. e = 2'-O-(2-methoxyethyl) (MOE); [5mC] = 5-methylcytosine; d = 2'-deoxy (DNA)

Test system: human apolipoprotein B mRNA
Test: Inhibition of human apolipoprotein B mRNA levels in HepG2 cells, quantitative real-time PCR
Assay type: cell-based
Details: for % INHIB / Percent Inhibition 50 nM / Percent Inhibition 150 nM / Percent Inhibition 250 nM / % INHIB 50 nm / % INHIB 150 nm / % Change in apolipoprotein B mRNA expression: HepG2 cells; for % INHIB / % INHIB (inhibition of human apolipoprotein B mRNA levels) / % INHIB 50 nm / % INHIB 150 nm: averages from two experiments; for Percent Inhibition 50 nM / Percent Inhibition 150 nM / Percent Inhibition 250 nM: Table 2; for % INHIB (inhibition of human apolipoprotein B mRNA levels): HepG2 cells treated with 150 nM of compound, quantitative real-time PCR; for % Change in apolipoprotein B mRNA expression: 24 hour (Table 40)
Experimental: The human hepatoblastoma cell line HepG2 was obtained from the American Type Culture Collection (Manassas, Va.). HepG2 cells were routinely cultured in Eagle's MEM supplemented with 10% fetal calf serum, non-essential amino acids, and 1 mM sodium pyruvate (Gibco/Life Technologies, Gaithersburg, Md.). Cells were routinely passaged by trypsinization and dilution when they reached 90% confluence. Cells were seeded into 96-well plates (Falcon-Primaria #3872) at a density of 7000 cells/well for use in RT-PCR analysis.
When cells reached 80% confluency, they were treated with oligonucleotide. For cells grown in 96-well plates, wells were washed once with 200 μL OPTI-MEM™-1 reduced-serum medium (Gibco BRL) and then treated with 130 μL of OPTI-MEM™-1 containing 3.75 μg/mL LIPOFECTIN™ (Gibco BRL) and the desired concentration of oligonucleotide. After 4-7 hours of treatment, the medium was replaced with fresh medium. Cells were harvested 16-24 hours after oligonucleotide treatment.
Quantitation of apolipoprotein B mRNA levels was determined by real-time quantitative PCR using the ABI PRISM™ 7700 Sequence Detection System (PE-Applied Biosystems, Foster City, Calif.) according to manufacturer's instructions. This is a closed-tube, non-gel-based, fluorescence detection system which allows high-throughput quantitation of polymerase chain reaction (PCR) products in real-time. As opposed to standard PCR, in which amplification products are quantitated after the PCR is completed, products in real-time quantitative PCR are quantitated as they accumulate. This is accomplished by including in the PCR reaction an oligonucleotide probe that anneals specifically between the forward and reverse PCR primers, and contains two fluorescent dyes. A reporter dye (e.g., JOE, FAM, or VIC, obtained from either Operon Technologies Inc., Alameda, Calif. or PE-Applied Biosystems, Foster City, Calif.) is attached to the 5′ end of the probe and a quencher dye (e.g., TAMRA, obtained from either Operon Technologies Inc., Alameda, Calif. or PE-Applied Biosystems, Foster City, Calif.) is attached to the 3′ end of the probe. When the probe and dyes are intact, reporter dye emission is quenched by the proximity of the 3′ quencher dye. During amplification, annealing of the probe to the target sequence creates a substrate that can be cleaved by the 5′-exonuclease activity of Taq polymerase. […] With each cycle, additional reporter dye molecules are cleaved from their respective probes, and the fluorescence intensity is monitored at regular intervals by laser optics built into the ABI PRISM™ 7700 Sequence Detection System. In each assay, a series of parallel reactions containing serial dilutions of mRNA from untreated control samples generates a standard curve that is used to quantitate the percent inhibition after antisense oligonucleotide treatment of test samples.
PCR reagents were obtained from PE-Applied Biosystems, Foster City, Calif. RT-PCR reactions were carried out by adding 25 μL PCR cocktail (1× TAQMAN™ buffer A, 5.5 mM MgCl2, 300 μM each of DATP, dCTP and dGTP, 600 μM of dUTP, 100 nM each of forward primer, reverse primer, and probe, 20 Units RNAse inhibitor, 1.25 Units AMPLITAQ GOLD™, and 12.5 Units MuLV reverse transcriptase) to 96 well plates containing 25 μL total RNA solution. The RT reaction was carried out by incubation for 30 minutes at 48° C. Following a 10 minute incubation at 95° C. to activate the AMPLITAQ GOLD™, 40 cycles of a two-step PCR protocol were carried out: 95° C. for 15 seconds (denaturation) followed by 60° C. for 1.5 minutes (annealing/extension).
Gene target quantities obtained by real time RT-PCR are normalized using either the expression level of GAPDH, a gene whose expression is constant, or by quantifying total RNA using RiboGreen™ (Molecular Probes, Inc. Eugene, Oreg.). GAPDH expression is quantified by real time RT-PCR, by being run simultaneously with the target, multiplexing, or separately. […]

[1] = human apolipoprotein B mRNA, oligonucleotides targeting genomic sequence SEQ ID NO 334

## 147806 (antisense eA*eT*eG*eT*eG*dG*dT*dA*dA*d[5mC]*dG*dA*dG*d[5mC]*d[5mC]*e[5mC]*eG*eA*eA*eG) [compound 147806]
Table 1, 150 nM
  % INHIB: 100%
50 nM
  Percent Inhibition 50 nM: 23%
150 nM
  Percent Inhibition 150 nM: 45%
  Percent Inhibition 250 nM: 28%

## 301122 (e[5mC]*eT*eG*eA*eG*dA*dT*dT*dA*d[5mC]*d[5mC]*d[5mC]*dG*d[5mC]*dA*eG*eA*eA*eT*e[5mC]; antisense) [compound 301122]
[1]
  % INHIB: 32%

## 301172 (antisense eT*eA*eA*eT*eG*dT*dG*dT*dT*dG*d[5mC]*dT*dG*dG*dT*eG*eA*eA*eG*eA) [compound 301172]
[1]
  % INHIB: 35%

## 147827 (antisense e[5mC]*eT*eA*eA*eT*dG*dG*d[5mC]*d[5mC]*d[5mC]*d[5mC]*dT*dT*dG*dA*eT*eA*eA*eA*e[5mC]) [compound 147827]
Table 1, 150 nM
  % INHIB: 13%

## 301144 (eG*e[5mC]*eA*eA*eA*dG*dG*dT*dA*dG*dA*dG*dG*dA*dA*eG*eG*eT*eA*eT; antisense) [compound 301144]
[1]
  % INHIB: 32%

## 301098 (antisense eA*e[5mC]*eT*eA*eG*dA*dG*dG*dT*dA*dG*d[5mC]*d[5mC]*dA*dG*eA*eA*e[5mC]*eA*e[5mC]) [compound 301098]
[1]
  % INHIB: 34%

## 301129 (e[5mC]*eA*eT*eT*eT*dG*d[5mC]*dA*d[5mC]*dA*dA*dG*dT*dG*dT*eT*eT*eG*eT*eT; antisense) [compound 301129]
[1]
  % INHIB: 35%

## 301133 (eA*eA*eG*eA*eA*dA*dA*dT*dG*dG*d[5mC]*dA*dT*d[5mC]*dA*eG*eG*eT*eT*eT; antisense) [compound 301133]
[1]
  % INHIB: 13%

## 301095 (antisense e[5mC]*eA*eA*eG*eG*dA*dA*dG*d[5mC]*dA*d[5mC]*dA*d[5mC]*d[5mC]*dA*eT*eG*eT*e[5mC]*eA) [compound 301095]
[1]
  % INHIB: 38%

## 301163 (antisense eG*e[5mC]*eT*eG*eG*dG*d[5mC]*dA*dT*dG*d[5mC]*dT*d[5mC]*dT*d[5mC]*eT*e[5mC]*e[5mC]*e[5mC]*e[5mC]) [compound 301163]
[1]
  % INHIB: 51%

## 281595 (eG*eA*eT*eG*eT*dG*dG*dA*dT*dT*dT*dG*dG*dT*dG*e[5mC]*eT*e[5mC]*eT*e[5mC]; antisense) [compound 281595]
  % INHIB (inhibition of human apolipoprotein B mRNA levels): 76%

## 301147 (eA*eT*eT*eA*eT*dG*dA*dT*dA*dA*dA*dA*dT*d[5mC]*dA*eA*eT*eT*eT*eT; antisense) [compound 301147]
[1]
  % INHIB: 19%

## 301165 (antisense eA*e[5mC]*eT*e[5mC]*e[5mC]*dT*dT*dT*d[5mC]*dT*dA*dT*dA*d[5mC]*d[5mC]*eT*eG*eG*e[5mC]*eT) [compound 301165]
[1]
  % INHIB: 47%

## 308606 (eT*eT*eG*eA*eA*dT*dG*dT*d[5mC]*dA*dT*dG*dG*dT*dA*eG*e[5mC]*e[5mC]*eT*e[5mC]; antisense) [compound 308606]
Table 11 gene walk, 50 nM
  % INHIB 50 nm: 54%
Table 11 gene walk, 150 nM
  % INHIB 150 nm: 97%

## 301093 (antisense eT*eG*eG*eA*eT*dT*dT*dG*dG*dA*dT*dA*d[5mC]*dA*d[5mC]*eA*eA*eG*eT*eT) [compound 301093]
[1]
  % INHIB: 42%

## 301083 (antisense eA*eG*eA*eA*eG*dA*dT*dG*d[5mC]*dA*dA*d[5mC]*d[5mC]*dA*d[5mC]*eA*eT*eG*eT*eA) [compound 301083]
[1]
  % INHIB: 29%

## 301180 (antisense eG*eA*eA*eT*eA*d[5mC]*dT*d[5mC]*dA*d[5mC]*d[5mC]*dT*dT*d[5mC]*dT*eG*e[5mC]*eT*eT*eG) [compound 301180]
[1]
  % INHIB: 6%

## 301206 (antisense eG*eT*eT*eT*eT*d[5mC]*dA*dA*dA*dA*dG*dG*dT*dA*dT*eA*eA*eG*eG*eT) [compound 301206]
[1]
  % INHIB: 28%

## 308629 (eA*eG*e[5mC]*e[5mC]*eT*d[5mC]*dA*dG*dT*d[5mC]*dT*dG*d[5mC]*dT*dT*e[5mC]*eG*e[5mC]*eG*e[5mC]; antisense) [compound 308629]
Table 13 gene walk, 50 nM
  % INHIB 50 nm: 77%
Table 13 gene walk, 150 nM
  % INHIB 150 nm: 95%

## 308623 (eG*e[5mC]*eG*e[5mC]*e[5mC]*dT*dT*d[5mC]*dT*dG*d[5mC]*dT*dT*dG*dA*eG*eT*eT*eA*e[5mC]; antisense) [compound 308623]
Table 13 gene walk, 50 nM
  % INHIB 50 nm: 62%
Table 13 gene walk, 150 nM
  % INHIB 150 nm: 71%

## 308617 (eG*e[5mC]*eT*e[5mC]*e[5mC]*dT*dT*dT*dT*dA*dG*dG*dT*dT*dA*e[5mC]*e[5mC]*eA*eG*e[5mC]; antisense) [compound 308617]
Table 11 gene walk, 50 nM
  % INHIB 50 nm: 77%
Table 11 gene walk, 150 nM
  % INHIB 150 nm: 87%

## 301195 (antisense eG*eA*eA*eT*eT*dG*dA*dG*dA*d[5mC]*dA*dA*d[5mC]*dT*dT*eG*eA*eT*eT*eT) [compound 301195]
[1]
  % INHIB: 26%

## 308625 (e[5mC]*eT*eT*e[5mC]*eG*d[5mC]*dG*d[5mC]*d[5mC]*dT*dT*d[5mC]*dT*dG*d[5mC]*eT*eT*eG*eA*eG; antisense) [compound 308625]
Table 13 gene walk, 50 nM
  % INHIB 50 nm: 64%
Table 13 gene walk, 150 nM
  % INHIB 150 nm: 83%

## 301134 (e[5mC]*e[5mC]*eA*eA*eG*d[5mC]*d[5mC]*dA*dA*dT*d[5mC]*dT*dG*dA*dG*eA*eA*eA*eG*eA; antisense) [compound 301134]
[1]
  % INHIB: 25%

## 147816 (antisense eT*e[5mC]*eA*eT*eA*d[5mC]*dG*dT*dT*dT*dA*dG*d[5mC]*d[5mC]*d[5mC]*eA*eA*eT*e[5mC]*eT) [compound 147816]
Table 1, 150 nM
  % INHIB: 100%
50 nM
  Percent Inhibition 50 nM: 25%
150 nM
  Percent Inhibition 150 nM: 81%
  Percent Inhibition 250 nM: 65%

## 301048 (eT*eT*e[5mC]*e[5mC]*eT*d[5mC]*d[5mC]*dT*d[5mC]*d[5mC]*d[5mC]*d[5mC]*d[5mC]*dA*dA*eG*eT*eT*eT*eA; antisense) [compound 301048]
  % INHIB (inhibition of human apolipoprotein B mRNA levels): 67%

## 301201 (antisense eA*eA*eA*eA*eT*d[5mC]*d[5mC]*dA*dT*dT*dT*dT*d[5mC]*dT*dT*eT*eA*eA*eA*eG) [compound 301201]
[1]
  % INHIB: 12%

## 147784 (antisense e[5mC]*eA*eG*e[5mC]*eG*d[5mC]*d[5mC]*dA*dG*d[5mC]*dA*dG*d[5mC]*dG*d[5mC]*e[5mC]*eA*eG*e[5mC]*eA) [compound 147784]
Table 1, 150 nM
  % INHIB: 70%

## 301127 (eT*e[5mC]*e[5mC]*eT*eA*dG*dA*dG*d[5mC]*dA*d[5mC]*dT*dA*dT*d[5mC]*eA*eA*eG*eT*eA; antisense) [compound 301127]
[1]
  % INHIB: 41%

## 332772 (antisense GCCTCAGTATTATTCGCACC; sugars from the 5' end e5 d10 e5, all phosphorothioate, methylation of C not given here) [compound 332772]
50 nM
  % Change in apolipoprotein B mRNA expression: +99%
150 nM
  % Change in apolipoprotein B mRNA expression: +84%
